In PubChem BioAssay (NCI) one finds GI50 and TGI data, which are given here for ten compounds.

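Grown in 96-well plates, cells were treated for 48 hours with each compound at five concentrations. Insufficient inhibition: endpoint recorded as highest concentration tested. At the GI50, growth is halved. At the TGI there is no net growth.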 Where only a bound is given, the exact number is not on record here.

Among the test systems are OVCAR-8 ovarian; RPMI-8226 leukemia; UACC-62 melanoma; NCI/ADR-RES ovarian; HCT-116 colon; SK-OV-3 ovarian; 786-0 renal; CAKI-1 renal; A498 renal; HL-60(TB) leukemia.
Holding throughout (assay): inhibition of tumour cell growth, NCI panel, 48 h

Take `CC(=O)OC1COC(Oc2c(C)c3c4c(c2O)[C@@H](C)CC[C@@H]4[C@@H](C)C[C@H]3C=C(C)C)C(O)C1O` (stereo not given in full): the GI50 was 20.6 µM with OVCAR-8 ovarian; 16.6 µM in the assay with RPMI-8226 leukemia; 18.8 µM in the assay on UACC-62 melanoma; 15.3 µM in the assay with NCI/ADR-RES ovarian; 16.1 µM in the assay on HCT-116 colon; 20.7 µM in the assay on SK-OV-3 ovarian. Besides, the GI50 with 786-0 renal is 19.2 µM; with CAKI-1 renal, 16 µM; with A498 renal, 14.7 µM. Further, the TGI in the assay on OVCAR-8 ovarian worked out at 50.3 µM; in the assay on RPMI-8226 leukemia it was 39.5 µM; with UACC-62 melanoma, 39.4 µM; in the assay on NCI/ADR-RES ovarian, 31.3 µM; with HCT-116 colon it was 41.3 µM; with SK-OV-3 ovarian it was 44 µM. In addition, the TGI was determined as 43.2 µM with 786-0 renal, 30.9 µM in the assay with CAKI-1 renal and 30 µM with A498 renal.

In the case of `NCC(Cc1ccccc1)P(=O)(O)O` (stereo not given), the TGI in the assay on OVCAR-8 ovarian, in the assay on HL-60(TB) leukemia, in the assay on UACC-62 melanoma, in the assay with NCI/ADR-RES ovarian, with HCT-116 colon and with SK-OV-3 ovarian was more than 100 µM in each case. Further, the TGI with 786-0 renal, in the assay on CAKI-1 renal and with A498 renal was more than 100 µM throughout.

For the compound `CCOC(=O)n1c2ccccc2c(=O)n1CCO`, the TGI in the assay with OVCAR-8 ovarian, with HL-60(TB) leukemia, in the assay with UACC-62 melanoma, in the assay with NCI/ADR-RES ovarian, with HCT-116 colon and in the assay with SK-OV-3 ovarian was more than 100 µM each time. Moreover, the TGI with 786-0 renal, with CAKI-1 renal and with A498 renal was more than 100 µM in each case.

For `CN1CC[C@]23c4c5ccc(O)c4OC2c2[nH]ncc2C[C@H]3[C@H]1C5` (stereo not given in full), the TGI in the assay with OVCAR-8 ovarian, in the assay with HL-60(TB) leukemia, with RPMI-8226 leukemia, with UACC-62 melanoma, with NCI/ADR-RES ovarian and in the assay with HCT-116 colon was more than 100 µM each time. For the same compound, the TGI in the assay on SK-OV-3 ovarian, in the assay on 786-0 renal and in the assay with CAKI-1 renal was more than 100 µM each time.

In the case of `O=C(CN(/C=C/C(=O)C(F)(F)F)c1ccccc1)c1ccc(F)cc1`, the GI50 is 47.4 µM with OVCAR-8 ovarian; 19.3 µM in the assay on RPMI-8226 leukemia; 13 µM in the assay with UACC-62 melanoma; 23.6 µM in the assay on NCI/ADR-RES ovarian; 25.3 µM in the assay with HCT-116 colon; 55 µM in the assay with SK-OV-3 ovarian. The GI50 in the assay on 786-0 renal was 41.1 µM; in the assay on CAKI-1 renal it was 19.8 µM. In addition, the TGI in the assay with OVCAR-8 ovarian was more than 100 µM; in the assay with RPMI-8226 leukemia, 54 µM; in the assay with UACC-62 melanoma, 26.9 µM; in the assay on NCI/ADR-RES ovarian it was 66 µM; in the assay on HCT-116 colon, 88.1 µM; with SK-OV-3 ovarian, more than 100 µM. Moreover, the TGI was more than 100 µM with 786-0 renal and 48.9 µM in the assay with CAKI-1 renal.

For the compound `Cc1n(Cc2ccc3ccccc3n2)cc[n+]1Cc1ccc2ccccc2c1`, the GI50 was 1.29 µM with OVCAR-8 ovarian; 0.344 µM in the assay with HL-60(TB) leukemia; 0.376 µM in the assay with RPMI-8226 leukemia; 0.933 µM with UACC-62 melanoma; more than 100 µM with NCI/ADR-RES ovarian; 0.61 µM in the assay with HCT-116 colon. In addition, the GI50 in the assay with SK-OV-3 ovarian was 1.16 µM; in the assay on 786-0 renal, 4.36 µM; in the assay with A498 renal, 1.84 µM. The TGI with OVCAR-8 ovarian was 11.2 µM; in the assay on HL-60(TB) leukemia, 1.46 µM; with RPMI-8226 leukemia, 6.63 µM; with UACC-62 melanoma, 3.61 µM; in the assay on NCI/ADR-RES ovarian it was more than 100 µM; with HCT-116 colon it was 10.4 µM. The TGI in the assay on SK-OV-3 ovarian stood at 5.03 µM; in the assay on 786-0 renal, 18.2 µM; with A498 renal, 10.2 µM.

For `CC(C)c1cc(C(C)C)c(Cl)c(Cl)c1O` (tested in a mixture with another compound), the TGI in the assay on OVCAR-8 ovarian is 76.1 µM; in the assay on HL-60(TB) leukemia, 36 µM; in the assay with RPMI-8226 leukemia, more than 100 µM; in the assay with UACC-62 melanoma, 44 µM; in the assay with NCI/ADR-RES ovarian it was more than 100 µM; with HCT-116 colon, more than 100 µM. For the same compound, the TGI in the assay with 786-0 renal was more than 100 µM; in the assay on CAKI-1 renal, 47 µM.

Regarding `COc1cc2c3c(n(CCCN4CCSCC4)c(=O)c2cc1OC)-c1cc2c(cc1C3=O)OCO2`, the GI50 was more than 100 µM in the assay on OVCAR-8 ovarian; 37.5 µM with UACC-62 melanoma; more than 100 µM in the assay with NCI/ADR-RES ovarian; 73.1 µM in the assay with HCT-116 colon; 88.1 µM with SK-OV-3 ovarian; 25.2 µM with 786-0 renal. Further, the GI50 in the assay on CAKI-1 renal is 21.1 µM. In addition, the TGI in the assay on OVCAR-8 ovarian is more than 100 µM; in the assay with UACC-62 melanoma it was more than 100 µM; in the assay on NCI/ADR-RES ovarian, more than 100 µM; in the assay on HCT-116 colon it was more than 100 µM; in the assay with SK-OV-3 ovarian, more than 100 µM; with 786-0 renal it was 75.5 µM. In the assay with CAKI-1 renal, this compound had a TGI of more than 100 µM.

Turning to `C=C(C)[C@@H]1CC[C@]2(C(=O)n3ccnc3)CC[C@]3(C)[C@H](CC[C@@H]4[C@@]5(C)CCCNC(C)(C)[C@@H]5CC[C@]43C)[C@@H]12`, the GI50 in the assay on OVCAR-8 ovarian was 2.07 µM; in the assay with HL-60(TB) leukemia, 1.55 µM; with UACC-62 melanoma, 1.6 µM; with NCI/ADR-RES ovarian, 1.7 µM; with HCT-116 colon it was 1.03 µM; with SK-OV-3 ovarian it was 3.72 µM. Besides, the GI50 in the assay with 786-0 renal is 1.45 µM; in the assay with A498 renal, 10.4 µM. Moreover, the TGI in the assay with OVCAR-8 ovarian amounted to 3.88 µM; with HL-60(TB) leukemia, 3.47 µM; with UACC-62 melanoma, 3.06 µM; with NCI/ADR-RES ovarian it was 3.66 µM; with HCT-116 colon it was 2.25 µM; with SK-OV-3 ovarian, 16.2 µM. The TGI amounted to 2.96 µM in the assay on 786-0 renal and 29.8 µM with A498 renal.

With `Nc1c(C(=O)Nc2ccccn2)sc2nc3c(cc12)CCCCCC3`, the GI50 was 2.21 µM in the assay with OVCAR-8 ovarian; 0.14 µM in the assay with HL-60(TB) leukemia; 0.915 µM in the assay with RPMI-8226 leukemia; 0.376 µM in the assay with UACC-62 melanoma; 0.57 µM in the assay with NCI/ADR-RES ovarian; 0.225 µM with HCT-116 colon. Moreover, the values for the GI50 in the assay with SK-OV-3 ovarian, with 786-0 renal and with CAKI-1 renal were 1.91 µM, 0.776 µM and 1.56 µM, respectively. Further, the TGI in the assay on OVCAR-8 ovarian turned out to be 15.8 µM; with HL-60(TB) leukemia, 1.43 µM; in the assay with RPMI-8226 leukemia it was 30 µM; with UACC-62 melanoma it was 10.3 µM; in the assay with NCI/ADR-RES ovarian, 41.4 µM; in the assay on HCT-116 colon, 7.14 µM. In addition, the figures for the TGI in the assay on SK-OV-3 ovarian, in the assay with 786-0 renal and in the assay with CAKI-1 renal were 15.2 µM, 6.24 µM and 9.33 µM, respectively.
